Measured values taken from patent publication US7642258B2 (Allergan, Inc., priority 2002, dated 2010).
Like-named read-outs stand apart in the source and are kept apart here.

Experiments:
[1] = tested on: patients with glaucoma or ocular hypertension; test: Clinical study: intraocular pressure (IOP) lowering, multicenter double-masked randomized parallel-group; assay type: in vivo; settings: range over week 2, week 6 and month 3 (hours 0, 2, 7, 9)
Protocol: IOP (hours 0, 2, 7, and 9), patient satisfaction questionnaire, patient comfort of study medication questionnaire, pharmacoeconomic evaluation by investigator
All data were summarized with descriptive statistics, frequency tables, and/or data listings. Safety analyses included all patients who received at least 1 dose of study medication. Analyses were performed for the primary efficacy variable IOP using the intent-to-treat (ITT) population with last observation carried forward (LOCF), and the per protocol population with observed cases.
Continuous variables (eg, IOP) were analyzed using analysis of variance (ANOVA). Within-group changes from baseline for continuous variables were analyzed using paired t-tests.
A 2-way ANOVA model with factors for treatment and investigator was used for the analysis of IOP. Comparisons were made between the Combination and each of the 2 monotherapies in a pairwise fashion using contrasts from the ANOVA model, with the same error term. A separate ANOVA model was employed at each hour/visit measurement of IOP. […] Point estimates of the mean treatment differences, as well as 2-sided 95% confidence intervals (CI) of the difference, were provided at each timepoint.

[2] = tested on: patients with glaucoma or ocular hypertension; test: Clinical study: safety (adverse events, heart rate, blood pressure, visual acuity); assay type: in vivo
[3] = Clinical study: quantitation of plasma brimonidine and timolol concentrations; assay type: in vivo, patients; settings: for concentration at 1 h: human, plasma, other: ophthalmic solution, 1 hour postdose, read-out: mean±SD plasma timolol concentration

Brc1c(N=C2NCCN2)ccc2nccnc12.O=C(O)C(O)C(O)C(=O)O [Brimonidine, 5-Bromo-6-(2-imidazolidinylideneamino)quinoxaline L-tartrate]
Mean changes from baseline diurnal IOP [1]: −3.5 to −5.7 mm Hg
Mean values of diurnal IOP [1]: 17.4 to 21.5 mm Hg

CC(C)(C)NC[C@H](O)COc1nsnc1N1CCOCC1.O=C(O)/C=C\C(=O)O [Timolol]
Serious adverse events reported ([2]; % of patients): 2.0%
discontinuation of patients due to adverse events ([2]; % of patients): 3.0%
allergic conjunctivitis, % of patients ([2]; adverse event through month 3): (0.0%)
allergic conjunctivitis, number of patients ([2]; adverse event through month 3): 0
asthenia, % of patients ([2]; adverse event through month 3): (0.5%)
asthenia, number of patients ([2]; adverse event through month 3): 1
burning sensation in eye, % of patients ([2]; adverse event through month 3): (12.7%)
burning sensation in eye, number of patients ([2]; adverse event through month 3): 25
conjunctival folliculosis, % of patients ([2]; adverse event through month 3): (0.5%)
conjunctival folliculosis, number of patients ([2]; adverse event through month 3): 1
conjunctival hyperemia, % of patients ([2]; adverse event through month 3): (5.6%)
conjunctival hyperemia, number of patients ([2]; adverse event through month 3): 11
epiphora, % of patients ([2]; adverse event through month 3): (1.5%)
epiphora, number of patients ([2]; adverse event through month 3): 3
eye pruritus, % of patients ([2]; adverse event through month 3): (1.5%)
eye pruritus, number of patients ([2]; adverse event through month 3): 3
foreign body sensation, % of patients ([2]; adverse event through month 3): (2.5%)
foreign body sensation, number of patients ([2]; adverse event through month 3): 5
infection (body as a whole), % of patients ([2]; adverse event through month 3): (4.1%)
infection (body as a whole), number of patients ([2]; adverse event through month 3): 8
oral dryness, % of patients ([2]; adverse event through month 3): (0.5%)
oral dryness, number of patients ([2]; adverse event through month 3): 1
somnolence, % of patients ([2]; adverse event through month 3): (0.0%)
somnolence, number of patients ([2]; adverse event through month 3): 0
stinging sensation eye, % of patients ([2]; adverse event through month 3): (5.6%)
stinging sensation eye, number of patients ([2]; adverse event through month 3): 11
visual disturbance, % of patients ([2]; adverse event through month 3): (1.5%)
visual disturbance, number of patients ([2]; adverse event through month 3): 3
incidence of eye discharge ([2]; through month 3): 0%
patients who experienced one or more adverse events, regardless of causality ([2]; through month 3): 50.8%
concentration at 1 h ([3]; month 3): 0.873 ± 0.516 ng/mL
concentration at 1 h ([3]; week 2): 0.95 ± 0.709 ng/mL
plasma timolol concentration in males lower than in females ([3]; month 3): 39%
plasma timolol concentration in males lower than in females ([3]; week 2): 45%
Mean changes from baseline diurnal IOP [1]: −4.5 to −6.4 mm Hg
Mean values of diurnal IOP [1]: 17.5 to 18.9 mm Hg
